# Tests used:
# [1] = test system: ECHOR (Echinochloa oryzoides, early watergrass); assay: In-water applied mixtures, transplanted paddy rice, greenhouse; format: in vivo, Echinochloa oryzoides (Ard.) Fritsch; conditions: 19 DAA
# Description: Weed seeds or nutlets of the desired test plant species were planted in puddled soil (mud) prepared by mixing a shredded, non-sterilized mineral soil (50.5 percent silt, 25.5 percent clay, and 24 percent sand, with a pH of about 7.6 and an organic matter content of about 2.9 percent) and water at a 1:1 volumetric ratio. The prepared mud was dispensed in 365 mL aliquots into 16-ounce (oz.) non-perforated plastic pots with a surface area of 86.59 square centimeters (cm^2) leaving a headspace of 3 centimeters (cm) in each pot Mud was allowed to dry overnight prior to planting or transplanting. Rice seeds were planted in Sun Gro MetroMix® 306 planting mixture, which typically has a pH of 6.0 to 6.8 and an organic matter content of about 30 percent, in plastic plug trays. Seedlings at the second or third leaf stage of growth were transplanted into 840 mL of mud contained in 32-oz. non-perforated plastic pots with a surface area of 86.59 cm^2 4 days prior to herbicide application. The paddy was created by filling the headspace of the pots with 2.5 to 3 cm of water. When required to ensure good germination and healthy plants, a fungicide treatment and/or other chemical or physical treatment was applied. The plants were grown for 4-22 days in a greenhouse with an approximate 14 h photoperiod which was maintained at about 29° C during the day and 26° C. during the night. Nutrients were added as Osmocote® (19:6:12, N:P:K+ minor nutrients) at 2 g per 16-oz. pot and 4 g per 32-oz. pot. Water was added on a regular basis to maintain the paddy flood, and supplemental lighting was provided with overhead metal halide 1000-Watt lamps as necessary. The plants were employed for testing when they reached the first through fourth true leaf stage.
# Treatments consisted of the acid or esters of 4-amino-3-chloro-5-fluoro-6-(4-chloro-2-fluoro-3-methoxy-phenyl)pyridine-2-carboxylic acid (compound A) each formulated as an SC (suspension concentrate) and various herbicidal components alone and in combination. Forms of compound A were applied on an acid equivalent basis.
# Other herbicidal components were applied on an active ingredient basis and included photosystem II (PSII)-inhibits propanil formulated as […] bentazon-sodium formulated as Basagran®, and simetryne (technical grade material).
# Treatment requirements for each compound or herbicidal component were calculated based upon the rates being tested, the concentration of active ingredient or acid equivalent in the formulation, an application volume of 2 mL per component per pot, and an application area of 86.59 cm^2 per pot.
# For formulated compounds, a measured amount was placed in an individual 100 or 200 mL glass vial and was dissolved in a volume of 1.25% (v/v) Agri-Dex® crop oil concentrate to obtain application solutions.
# For technical grade compounds, a weighed amount was placed in an individual 100 to 200 mL glass vial and was dissolved in a volume of acetone to obtain concentrated stock solutions. […] The concentrated stock solutions obtained were diluted with an equivalent volume of an aqueous mixture containing 2.5% (v/v) crop oil concentrate so that the final application solutions contained 1.25% (v/v) crop oil concentrate.
# Applications were made by injecting with a pipetter appropriate amounts of the application solutions, individually and sequentially, into the aqueous layer of the paddy. Control plants were treated in the same manner with the solvent blank. Applications were made so that all treated plant material received the same concentrations of acetone and crop oil concentrate.
# The treated plants and control plants were placed in a greenhouse as described above and water was added as needed to maintain a paddy flood. After approximately 3 weeks the condition of the test plants as compared with that of the untreated plants was determined visually and scored on a scale of 0 to 100 percent where 0 corresponds to no injury or growth inhibition and 100 corresponds to complete kill. […]
# [2] = test system: GALAP (Galium aparine, catchweed bedstraw); assay: Postemergence herbicidal activity of mixtures in cereal crops, greenhouse; format: in vivo, Galium aparine L.
# Description: Seeds of the desired test plant species were planted in Sun Gro MetroMix® 306 planting mixture, which typically has a pH of 6.0 to 6.8 and an organic matter content of about 30 percent, in plastic pots with a surface area of 103.2 square centimeters (cm^2). When required to ensure good germination and healthy plants, a fungicide treatment and/or other chemical or physical treatment was applied. The plants were grown for 7-36 days in a greenhouse with an approximate 14 hour photoperiod which was maintained at about 18° C. during the day and about 17° C. during the night. Nutrients and water were added on a regular basis and supplemental lighting was provided with overhead metal halide 1000-Watt lamps as necessary. The plants were employed for testing when they reached the second or third true leaf stage.
# Treatments consisted of the benzyl ester of 4-amino-3-chloro-5-fluoro-6-(4-chloro-2-fluoro-3-methoxy-phenyl)pyridine-2-carboxylic acid (Compound A), formulated as an SC, a second cereal herbicide alone and then both in combination.
# Other herbicidal components were applied on an active ingredient basis and included PSII-inhibiting herbicides.
# Measured aliquots of benzyl ester of 4-amino-3-chloro-5-fluoro-6-(4-chloro-2-fluoro-3-methoxy-phenyl)pyridine-2-carboxylic acid (Compound A) were placed in 25 milliliter (mL) glass vials and diluted in a volume of 1.25% (v/v) Agri-Dex® crop oil concentrate to obtain stock solutions. Compound requirements are based upon a 12 mL application volume at a rate of 187 liters per hectare (L/ha). Spray solutions of the second cereal herbicide and experimental compound mixtures were prepared by adding the stock solutions to the appropriate amount of dilution solution to form 12 mL spray solution with active ingredients in two- and three-way combinations. Formulated compounds were applied to the plant material with an overhead Mandel track sprayer equipped with an 8002E nozzle calibrated to deliver 187 L/ha over an application area of 0.503 square meters (m^2) at a spray height of 18 inches (46 cm) above average plant canopy. Control plants were sprayed in the same manner with the solvent blank.
# The treated plants and control plants were placed in a greenhouse as described above and watered by sub-irrigation to prevent wash-off of the test compounds. After 20-22 days, the condition of the test plants as compared with that of the control plants was determined visually and scored on a scale of 0 to 100 percent where 0 corresponds to no injury and 100 corresponds to complete kill.
# Colby's equation was used to determine the herbicidal effects expected from the mixtures (Colby, S. R. 1967. Calculation of the synergistic and antagonistic response of herbicide combinations. Weeds 15:20-22).
# The following equation was used to calculate the expected activity of mixtures containing two active ingredients, A and B: Expected=A+B−(A×B/100)
smiles,measurement,setting,value
"COc1c(Cl)ccc(-c2nc(C(=O)OCc3ccccc3)c(Cl)c(N)c2F)c1F [Compound A Benzyl Ester, benzyl ester of 4-amino-3-chloro-5-fluoro-6-(4-chloro-2-fluoro-3-methoxy-phenyl)pyridine-2-carboxylic acid]",Visual Weed Control (%) Obs,[1]; 8 g ae/ha,10%
same,Visual Weed Control (%) Obs,[1]; 16 g ae/ha,20%
same,Visual Weed Control (%) Obs,[1]; 32 g ae/ha,25%
same,Visual Weed Control (%) - 21 DAA GALAP Obs,[2]; Compound A Benzyl Ester 5 g ai/ha,66%
same,Visual Weed Control (%) - 21 DAA GALAP Obs,[2]; Compound A Benzyl Ester 10 g ai/ha,77%

# From patent publication US8912121B2, “Herbicidal compositions comprising 4-amino-3-chloro-5-fluoro-6-(4-chloro-2-fluoro-3-methoxyphenyl)pyridine-2-carboxylic acid or a derivative thereof and certain PS II inhibitors” (Dow Agrosciences LLC, priority 2012, dated 2014)
